From patent US9511055B2, “Angiotensin in treating brain conditions” (TARIX PHARMACEUTICALS LTD., priority 2012, dated 2016)

Legend:
Assay type in all cases: in vivo
[1] = tested on: MCAO rat model of ischemic stroke; assay: Stepping test (forelimb akinesia) after tMCAO; conditions: Example 2; for stepping test performance vs vehicle control: all experimental conditions (s.c. daily injection or Alzet pump, 28 days), by Day 21 post-surgery
Description: (§1) For the purposes of this example, Transient middle cerebral artery occlusion (tMCAO) procedure Day is defined as “Day 1” in this study. On the day of surgery anesthesia were induced with 4% isoflurane in a mixture of 70% N2O and 30% O2 and maintained with 1.5-2% isoflurane.
(§2) The tMCAO procedures were performed according to the method described R. Schmid-Elsaesser et al. Briefly, the right CCA (Common Carotid Artery) was exposed through a midline neck incision and carefully dissected free from surrounding nerves and fascia—from its bifurcation to the base of the skull. The occipital artery branches of the ECA (External Carotid Artery) were then isolated, and these branches were dissected and coagulated. The ECA was dissected further distally and coagulated along with the terminal lingual and maxillary artery branches, which was then divided. The ICA (Internal Carotid Artery) was isolated and carefully separated from the adjacent vagus nerve, and the pterygopalatine artery was ligated close to its origin with a 5-0 nylon suture (SMI, Belgium). Next, a 4-0 silk suture was tied loosely around the mobilized ECA stump, and a 4 cm length of 4-0 monofilament nylon suture (the tip of the suture was blunted by using a flame, and the suture was coated with polylysine, prior to insertion) was inserted through the proximal ECA into the ICA and thence into the circle of Willis, effectively occluding the MCA. The surgical wound was closed and the animals were returned to their cages to recover from anesthesia. One hour and a half after occlusion rats were re-anesthetized, the monofilament was withdrawn to allow reperfusion, the surgical wound was closed and rats were returned to their cages.
(§3) Animals were subjected to a modified Modified Neurological Rating Scale (mNRS) at 24 hours post reperfusion. Only animals with an overall score of ≧10 are included in this study. Animals were allocated into the test groups, according to the mNRS results on day 2, in order to have similar distribution of rats performance between groups. Started on day 2, 24 hours post-surgery, each animal is implanted subcutaneously with osmotic Alzet pump and is treated by continuous PanCyte administration (2.5 mg/ml or 25 mg/ml in PBS; SEQ ID NO:22).
Animals were tested for forelimb akinesia in a stepping test. The animal was held with its hind limbs fixed with one hand and the forelimb not monitored with the other, while the unrestrained fore-paw touches a table. The number of adjusting steps were counted while the animal was moved sideways along the table surface (85 cm in approximately five seconds), in the forehand & backhand direction for both forelimbs. […] Four groups were analyzed in this test, a control group (receiving only PBS for 49 days), a group receiving 50 μg/kg PanCyte for 49 days, a group receiving 500 μg/kg PanCyte for 49 days, and a group receiving 50 μg/kg PanCyte for 14 days.
(§4) Animals were subjected to a modified Modified Neurological Rating Scale (mNRS) at 24 hours post reperfusion. Only animals with an overall score of ≧10 were included in this study. Animals were allocated into the test groups, according to the mNRS results on day 2, in order to have similar distribution of rats performance between groups. Starting on day 2, 24 hours post-surgery, animals in groups 4, 5 and 7 were implanted subcutaneously with an osmotic Alzet pump and treated with either 500 μg/kg TXA127 (SEQ ID NO:1), 500 μg/kg PanCyte (SEQ ID NO:22), or 50 μg/kg Linear PanCyte (SEQ ID NO:6). Animals in groups 2, 3 and 6 received 500 μg/kg or 1,000 μg/kg TXA127 or 500 μg/kg PanCyte, administered subcutaneously via daily injection. Animals in group 1 were treated with a daily subcutaneous injection of a PBS (vehicle).
Animals were tested for forelimb akinesia in a stepping test (ST). The animal was held with its hind limbs fixed with one hand and the forelimb not to be monitored with the other, while the unrestrained fore-paw touches the table. […]

[2] = tested on: MCAO rat model of ischemic stroke; assay: Forelimb placement test after tMCAO; conditions: Example 2; 50 μg/kg, s.c. Alzet pump, 28 days; particularly from Day 35 onward
Description: as §1, §2, §3
The limb placing tests were divided into both forelimb and hindlimb tests. For the forelimb-placing test, the examiner held the rat close to a tabletop and scored the rat's ability to place the forelimb on the tabletop in response to whisker, visual, tactile, or proprioceptive stimulation. Similarly, for the hindlimb placing test, the examiner assessed the rat's ability to place the hindlimb on the tabletop in response to tactile and proprioceptive stimulation. […]

[3] = tested on: MCAO rat model of ischemic stroke; assay: Body swing test after tMCAO; conditions: Example 2, 28 days; for body swing test performance level: Day 49
Description: as §1, §2, §3
The rat was held approximately one inch from the base of its tail. It was then elevated to an inch above a surface of a table. The rat was held in the vertical axis, defined as no more than 10° to either the left or the right side. A swing was recorded whenever the rat moved its head out of the vertical axis to either side. Before attempting another swing, the rat had to return to the vertical position for the next swing to be counted. Twenty (20) total swings were counted. A normal rat typically has an equal number of swings to either side. Following focal ischemia, rats tend to swing to the contralateral side (left side in this example). Body swing scores are expressed as a percentage of rightward over total swings. […] Four groups were analyzed in this test, a control group (receiving only PBS for 49 days), a group receiving 50 μg/kg PanCyte for 49 days, a group receiving 500 μg/kg PanCyte for 49 days, and a group receiving 50 μg/kg PanCyte for 14 days.
as §4, with “Animals in group 1 were treated with a daily subcutaneous injection of a PBS (vehicle).” left out

[4] = tested on: MCAO rat model of ischemic stroke; assay: Overall post-stroke performance in tMCAO rats, Example 2 comparison; conditions: 50 μg/kg Linear PanCyte as compared to 500 μg/kg of PanCyte
Description: The animal model, surgical procedures, and animal care procedures and conditions were as described above for Example 1 unless otherwise specified.
as §4
In addition to the performance benefits discussed above, blood flow and blood vessel diameter was measured using Laser Doppler, according to known protocols, in each non-Alzet group on Day 50.

Substance | stepping test results compared with ten times as much TXA127 or PanCyte ([1]; 50 ug/kg, s.c. Alzet pump, 28 days, vs 500 μg/kg TXA127 or PanCyte) | stepping test performance vs vehicle control [1] | forelimb placing test performance compared with the other experimental groups [2] | body swing test performance vs vehicle control ([3]; 50 μg/kg s.c. Alzet pump, Day 21) | body swing test performance vs vehicle control ([3]; 50 μg/kg s.c. Alzet pump, Day 28) | body swing test performance level ([3]; 50 μg/kg s.c. Alzet pump) | effectiveness compared with PanCyte [4] | body swing test performance vs vehicle control ([3]; 500 μg/kg daily s.c. injection, before Day 35) | body swing test performance vs vehicle control ([3]; 500 μg/kg s.c. Alzet pump, Day 21) | body swing test performance vs vehicle control ([3]; 500 μg/kg s.c. Alzet pump, Day 28) | body swing test performance vs vehicle control ([3]; 1,000 μg/kg daily s.c. injection, Day 21) | body swing test performance vs vehicle control ([3]; 1,000 μg/kg daily s.c. injection, Day 28) | body swing test performance level ([3]; TXA 1,000 g/kg group, daily s.c. injection) | body swing test performance level ([3]; TXA Alzet group, 500 μg/kg s.c. Alzet pump)
Asp^1-Arg^2-Val^3-Ser^4-Ile^5-His^6-Cys^7 (SEQ ID NO:6) (DRVSIHC) [Linear PanCyte, non-cyclized form of PanCyte] | substantially equivalent | significantly improved the performance of treated rats | best performance | showed improvement by Day 21 | significant improvement in performance by Day 28 | near-normal (uninjured) level | almost equally effective |  |  |  |  |  |  | 
Asp^1-Arg^2-Val^3-Tyr^4-Ile^5-His^6-Pro^7 (SEQ ID NO: 1) (DRVYIHP) [TXA127] |  | significantly improved the performance of treated rats |  |  |  |  |  | did not show significant results until Day 35 | showed improvement by Day 21 | significant improvement in performance by Day 28 | showed improvement by Day 21 | significant improvement in performance by Day 28 | near-normal (uninjured) level | near-normal (uninjured) level
